Experimental data from ChEMBL document CHEMBL1139835, “Novel quinolizidinyl derivatives as antiarrhythmic agents” (J Med Chem, 2007).
Calls of active or inactive are those of the source. The rule behind the calls is not given here.

Tests used:
[1] = Negative inotropic activity assessed as decrease in developed tension in isolated guinea pig left atrium at 100 uM relative to control; type: functional, Cavia porcellus, Cardiac atrium; set-up: scale not given: the % may be the effect or the level left
[2] = Negative inotropic activity assessed as decrease in developed tension in isolated guinea pig left atrium; type: functional, tissue-based; details: Cavia porcellus, Cardiac atrium
[3] = Positive chronotropic activity in isolated guinea pig right atrium relative to control; type: functional, Cavia porcellus, Cardiac atrium
Cavia porcellus [4] = species on record: Cavia porcellus; assay: (§1) Activity against alternating current-induced arrhythmia in guinea pig left atrium at 10 uM; type: functional; details: Cardiac atrium
Aorta [5] = assay: Inhibition of calcium-induced contraction of potassium ion depolarized guinea pig aortic strips at 100 uM; type: functional; details: Cavia porcellus
[6] = Activity against alternating current-induced arrhythmia in guinea pig left atrium at 5 uM; type: functional, Cavia porcellus, Cardiac atrium
[7] = Negative inotropic activity assessed as decrease in developed tension in isolated guinea pig left atrium at 1 uM relative to control; type: functional, Cavia porcellus, Cardiac atrium; set-up: scale not given: the % may be the effect or the level left
[8] = Negative chronotropic activity assessed as decrease in atrial rate in isolated guinea pig right atrium at 100 uM relative to control; type: functional, Cavia porcellus, Cardiac atrium; set-up: scale not given: the % may be the effect or the level left
[9] = Activity against alternating current-induced arrhythmia in guinea pig left atrium; type: functional, tissue-based; details: Cavia porcellus, Cardiac atrium
[10] = Negative inotropic activity assessed as decrease in developed tension in isolated guinea pig left atrium at 50 uM relative to control; type: functional, Cavia porcellus, Cardiac atrium; set-up: scale not given: the % may be the effect or the level left
Cavia porcellus [11] = species on record: Cavia porcellus; assay: (§2) Activity against alternating current-induced arrhythmia in guinea pig left atrium at 100 uM; type: functional; details: Cardiac atrium
[12] = Activity against alternating current-induced arrhythmia in guinea pig left atrium at 50 uM; type: functional, Cavia porcellus, Cardiac atrium
[13] = Positive chronotropic activity in isolated guinea pig right atrium at 5 uM relative to control; type: functional, Cavia porcellus, Cardiac atrium
[14] = Displacement of [3H]batrachotoxin from sodium channel in rat brain; type: tissue-based
Aorta [15] = assay: Inhibition of calcium-induced contraction of potassium ion depolarized guinea pig aortic strips at 50 uM; type: functional; details: Cavia porcellus
[16] = Negative inotropic activity assessed as decrease in developed tension in isolated guinea pig left atrium at 10 uM relative to control; type: functional, Cavia porcellus, Cardiac atrium; set-up: scale not given: the % may be the effect or the level left
[17] = as §1; type: functional, Cavia porcellus, Cardiac atrium
[18] = Negative inotropic activity assessed as decrease in developed tension in isolated guinea pig left atrium at 0.5 uM relative to control; type: functional, Cavia porcellus, Cardiac atrium; set-up: scale not given: the % may be the effect or the level left
Heart [19] = assay: Ventricular action potential duration in spontaneously beating Langendorff-perfused guinea pig heart at 1 uM; type: functional, Cavia porcellus
Heart [20] = assay: Ventricular action potential duration in spontaneously beating Langendorff-perfused guinea pig heart at 1 nM; type: functional, Cavia porcellus
Heart [21] = assay: Heart rate in spontaneously beating Langendorff-perfused guinea pig heart at 10 nM; type: functional, Cavia porcellus; set-up: unit not given here
Heart [22] = assay: Atrioventricular conduction time in spontaneously beating Langendorff-perfused guinea pig heart at 10 nM; type: functional, Cavia porcellus
Heart [23] = assay: Intraventricular conduction time in spontaneously beating Langendorff-perfused guinea pig heart at 10 nM; type: functional, Cavia porcellus
Heart [24] = assay: Intraventricular conduction time in spontaneously beating Langendorff-perfused guinea pig heart at 1 uM; type: functional, Cavia porcellus
Heart [25] = assay: Ventricular action potential duration in spontaneously beating Langendorff-perfused guinea pig heart at 10 uM; type: functional, Cavia porcellus
Heart [26] = assay: Atrioventricular conduction time in spontaneously beating Langendorff-perfused guinea pig heart at 0.1 uM; type: functional, Cavia porcellus
Heart [27] = assay: Heart rate in spontaneously beating Langendorff-perfused guinea pig heart at 0.1uM; type: functional, Cavia porcellus; set-up: unit: beats/min
Heart [28] = assay: Intraventricular conduction time in spontaneously beating Langendorff-perfused guinea pig heart at 0.1 uM; type: functional, Cavia porcellus
Heart [29] = assay: Ventricular action potential duration in spontaneously beating Langendorff-perfused guinea pig heart at 0.1 uM; type: functional, Cavia porcellus
Heart [30] = assay: Heart rate in spontaneously beating Langendorff-perfused guinea pig heart at 10 uM; type: functional, Cavia porcellus; set-up: unit not given here
Heart [31] = assay: Heart rate in spontaneously beating Langendorff-perfused guinea pig heart at 1 nM; type: functional, Cavia porcellus; set-up: unit not given here
[32] = as §2; type: functional, Cavia porcellus, Cardiac atrium
Heart [33] = assay: Ventricular action potential duration in spontaneously beating Langendorff-perfused guinea pig heart at 10 nM; type: functional, Cavia porcellus
Heart [34] = assay: Heart rate in spontaneously beating Langendorff-perfused guinea pig heart at 1 uM; type: functional, Cavia porcellus; set-up: unit not given here
Heart [35] = assay: Intraventricular conduction time in spontaneously beating Langendorff-perfused guinea pig heart at 10 uM; type: functional, Cavia porcellus
Heart [36] = assay: Atrioventricular conduction time in spontaneously beating Langendorff-perfused guinea pig heart at 10 uM; type: functional, Cavia porcellus
Heart [37] = assay: Atrioventricular conduction time in spontaneously beating Langendorff-perfused guinea pig heart at 1 nM; type: functional, Cavia porcellus
Heart [38] = assay: Atrioventricular conduction time in spontaneously beating Langendorff-perfused guinea pig heart at 1 uM; type: functional, Cavia porcellus
Heart [39] = assay: Intraventricular conduction time in spontaneously beating Langendorff-perfused guinea pig heart at 1 nM; type: functional, Cavia porcellus
tissue or blood = details: Cavia porcellus, Cardiac atrium
[40] = Negative chronotropic activity assessed as decrease in atrial rate in isolated guinea pig right atrium at 50 uM relative to control; type: functional, Cavia porcellus, Cardiac atrium; set-up: scale not given: the % may be the effect or the level left
[41] = Negative inotropic activity assessed as decrease in developed tension in isolated guinea pig left atrium at 50 nM relative to control; type: functional, Cavia porcellus, Cardiac atrium; set-up: scale not given: the % may be the effect or the level left
[42] = Negative chronotropic activity assessed as decrease in atrial rate in isolated guinea pig right atrium at 10 uM relative to control; type: functional, Cavia porcellus, Cardiac atrium; set-up: scale not given: the % may be the effect or the level left

Work on `Cc1cc(NS(C)(=O)=O)cc(C)c1NC(=O)C[C@@H]1CCCN2CCCC[C@H]12` yielded an Activity [1] of 86%, an EC50 [2] of 310 nM and an Activity [3] of 8%. For the same molecule, the Activity (Cavia porcellus [4]) was “inactive” and the inhibition at 100 µM (Aorta [5]) was 24%.

In the case of `Cc1cc(NS(C)(=O)=O)cc(C)c1OC[C@@H]1CCCN2CCCC[C@H]12`, the Activity [6] is reported as 60%, the EC50 [2] is reported as 31 nM and the Activity [7] is reported as 83%. The inhibition at 100 µM (Aorta [5]) was 30%, the Activity [8] was 12% and the EC50 [9] was 1250 nM.

For `Cc1cc([N+](=O)[O-])cc(C)c1NC(=O)C[C@@H]1CCCN2CCCC[C@H]12`, the Activity [10] was 79%, the EC50 [2] was 3460 nM and the Activity (Cavia porcellus [11]) was “inactive”. For the same molecule, the inhibition at 100 µM (Aorta [5]) was 4% and the Activity [8] was 25%.

Molecule `CCN(CC)CC(=O)Nc1c(C)cccc1C` [LIDOCAINE] has an Activity [12] of 34%, an EC50 [2] of 17 nM and an Activity [7] of 88%. The inhibition at 100 µM (Aorta [5]) was 14% and the Activity [13] was 29%.

In the case of `Cc1cc(C(=O)c2ccccc2)ccc1NC(=O)C[C@@H]1CCCN2CCCC[C@H]12`, the IC50 [14] is reported as 3700 nM.

With `Cc1cc(N)cc(C)c1OC[C@H]1CCCN2CCCC[C@H]12` the inhibition at 50 µM (Aorta [15]) was 32%, the EC50 [2] was 630 nM and the Activity [16] was 91%. The Activity [17] was 38% and the Activity [8] was 44%.

With `Nc1ccc(C(=O)NC[C@@H]2CCCN3CCCC[C@H]23)cc1` the Activity [1] was 95%, the EC50 [2] was 460 nM and the Activity [3] was 13%. It also gave an Activity [17] of 28% and an inhibition at 100 µM (Aorta [5]) of 3%.

Work on `CCN(CC)CCNC(=O)c1ccc(N)cc1` [PROCAINAMIDE] yielded an Activity [12] of 11%, an EC50 [2] of 14 nM and an Activity [3] of 9%. The Activity [18] was 92% and the inhibition at 100 µM (Aorta [5]) was 3%.

For `CCCCc1oc2ccccc2c1C(=O)c1cc(I)c(OCCN(CC)CC)c(I)c1` [AMIODARONE], the Activity (Heart [19]) was 174 ms, the Activity (Heart [20]) was 161 ms and the Activity [1] was 30%. The Activity (Heart [21]) was 180, the Activity (Heart [22]) was 55 ms and the Activity (Heart [23]) was 20 ms. It also gave an Activity (Heart [24]) of 22 ms, an Activity (Heart [25]) of 182 ms and an Activity (Heart [26]) of 55 ms. It also gave an Activity (Heart [27]) of 171, an Activity (Heart [28]) of 21 ms and an Activity (Heart [29]) of 169 ms. For the same molecule, the Activity (Heart [30]) was 132, the Activity (Heart [31]) was 187 and the Activity [32] was 10%. It also gave an Activity (Heart [33]) of 161 ms, an Activity (Heart [34]) of 164 and an Activity (Heart [35]) of 24 ms. It also gave an Activity (Heart [36]) of 58 ms, an Activity (Heart [37]) of 54 ms and an inhibition at 100 µM (Aorta [5]) of 3%. It also gave an Activity [8] of 72%, an Activity (Heart [38]) of 56 ms and an Activity (Heart [39]) of 20 ms.

`Cc1cc([N+](=O)[O-])cc(C)c1OC[C@@H]1CCCN2CCCC[C@H]12` showed an Activity [12] of 27%, an Activity [1] of 91% and an EC50 [2] of 8390 nM. It also gave an EC50 (tissue or blood) of 23700 nM, an inhibition at 100 µM (Aorta [5]) of 16% and an Activity [40] of 66%.

With `Cc1cccc(C)c1OC[C@@H]1CCCN2CCCC[C@H]12` the Activity (Heart [19]) was 200 ms, the Activity (Heart [20]) was 155 ms and the inhibition at 50 µM (Aorta [15]) was 26%. The Activity (Heart [21]) was 215, the Activity (Heart [22]) was 64 ms and the Activity (Heart [23]) was 30 ms. For the same molecule, the Activity (Heart [24]) was 30 ms, the Activity (Heart [25]) was 210 ms and the Activity (Heart [26]) was 66 ms. It also gave an Activity (Heart [27]) of 210, an Activity (Heart [28]) of 28 ms and an Activity (Heart [29]) of 170 ms. The Activity [41] was 25%, the Activity [17] was 176% and the Activity (Heart [30]) was 203. It also gave an Activity (Heart [31]) of 218, an Activity (Heart [33]) of 160 ms and an Activity (Heart [34]) of 206. The Activity [42] was 19%, the Activity (Heart [35]) was 31 ms and the Activity (Heart [36]) was 70 ms. For the same molecule, the Activity (Heart [37]) was 60 ms, the EC50 [9] was 460 nM and the Activity (Heart [38]) was 68 ms. The Activity (Heart [39]) was 30 ms.
